Laboratory results: PubChem BioAssay AID256 (DTP/NCI, 2004)
Several values for one entry are separate records, joined by “and”; a condition that tells them apart may be missing. Equal values may be shown once. Toxic doses and inconclusive results are not listed. Rule for the calls: active = survival T/C of 150% or more; inactive = T/C below 125% in these data.

Test system: CD2F1 mice, L1210 leukemia ip, survival T/C
Assay: NCI In Vivo Anticancer Drug Screen. Data for tumor model L1210 Leukemia (intraperitoneal) in CD2F1 (CDF1) mice
Details: higher = longer survival
In short: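 Transplantable tumor in mice; compound-treated vs vehicle-treated groups. Read-out = treated/control ratio of the measured endpoint.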

[1] = endpoint: mean survival time, dose: 100.0 mg/kg/injection, schedule: Q01DX009 (ip), vehicle: saline
[2] = endpoint: mean survival time, dose: 200.0 mg/kg/injection, schedule: Q01DX009 (ip), vehicle: saline
[3] = endpoint: mean survival time, dose: 100.0 mg/kg/injection, schedule: Q04DX003 (ip), vehicle: saline with Tween-80
[4] = endpoint: mean survival time, dose: 200.0 mg/kg/injection, schedule: Q01DX009 (ip), vehicle: saline with Tween-80
[5] = endpoint: mean survival time, dose: 200.0 mg/kg/injection, schedule: Q04DX003 (ip), vehicle: saline with Tween-80
[6] = endpoint: mean survival time, dose: 0.39 mg/kg/injection, schedule: Q01DX009 (ip), vehicle: saline
[7] = endpoint: mean survival time, dose: 0.78 mg/kg/injection, schedule: Q01DX009 (ip), vehicle: saline
[8] = endpoint: mean survival time, dose: 1.56 mg/kg/injection, schedule: Q01DX009 (ip), vehicle: saline

Measured: T/C

[Cl][Pt+2][Cl].[NH-]C1CCC1.[NH2-]
inactive: endpoint: mean survival time, dose: 0.39 mg/kg/injection, schedule: Q04DX003 (ip), vehicle: saline 98 % of control | endpoint: mean survival time, dose: 0.78 mg/kg/injection, schedule: Q04DX003 (ip), vehicle: saline 100 % of control | endpoint: mean survival time, dose: 1.56 mg/kg/injection, schedule: Q04DX003 (ip), vehicle: saline 120 % of control | endpoint: mean survival time, dose: 3.12 mg/kg/injection, schedule: Q04DX003 (ip), vehicle: distilled water + Tween-80 110 % of control | endpoint: mean survival time, dose: 6.25 mg/kg/injection, schedule: Q04DX003 (ip), vehicle: distilled water + Tween-80 86 % of control | endpoint: mean survival time, dose: 6.25 mg/kg/injection, schedule: Q04DX003 (ip), vehicle: water 111 % of control | endpoint: median survival time, dose: 0.38 mg/kg/injection, schedule: Q01DX009 (ip), vehicle: saline 122 % of control | endpoint: median survival time, dose: 6.0 mg/kg/injection, schedule: Q01DX009 (ip), vehicle: saline 116 % of control and 123 % of control | endpoint: median survival time, dose: 12.0 mg/kg/injection, schedule: Q01DX009 (ip), vehicle: suspension in saline 111 % of control
active: endpoint: mean survival time, dose: 3.12 mg/kg/injection, schedule: Q04DX003 (ip), vehicle: water 200 % of control | endpoint: mean survival time, dose: 6.25 mg/kg/injection, schedule: Q04DX003 (ip), vehicle: saline 168 % of control | endpoint: median survival time, dose: 1.5 mg/kg/injection, schedule: Q01DX009 (ip), vehicle: saline 156 % of control and 172 % of control | endpoint: median survival time, dose: 3.0 mg/kg/injection, schedule: Q01DX009 (ip), vehicle: saline 184 % of control and 213 % of control | endpoint: median survival time, dose: 3.0 mg/kg/injection, schedule: Q01DX009 (ip), vehicle: suspension in saline 314 % of control

CSc1nc(Cl)c2cc(Cl)[nH]c2n1
inactive: endpoint: median survival time, dose: 1.5 mg/kg/injection, schedule: Q01DX009 (ip), vehicle: saline with Tween-80 104 % of control | endpoint: median survival time, dose: 3.0 mg/kg/injection, schedule: Q01DX009 (ip), vehicle: saline with Tween-80 107 % of control | endpoint: median survival time, dose: 6.0 mg/kg/injection, schedule: Q01DX009 (ip), vehicle: saline with Tween-80 110 % of control | endpoint: median survival time, dose: 50.0 mg/kg/injection, schedule: Q01DX005 (ip), vehicle: saline with Tween-80 100 % of control | endpoint: median survival time, dose: 100.0 mg/kg/injection, schedule: Q01DX005 (ip), vehicle: saline with Tween-80 101 % of control

COc1cccc(N=C(N)N=C(N)N)c1
inactive: [1] 95 % of control | [2] 90 % of control

O=C(C[n+]1ccc2ccccc2c1)c1ccc2ccccc2c1
inactive: endpoint: mean survival time, dose: 12.5 mg/kg/injection, schedule: Q04DX003 (ip), vehicle: saline with Tween-80 92 % of control | endpoint: mean survival time, dose: 25.0 mg/kg/injection, schedule: Q04DX003 (ip), vehicle: saline with Tween-80 86 % of control

C(=N/N=C/c1ccc2c(c1)OCO2)/c1ccco1
inactive: [3] 93 % of control | [4] 90 % of control | [5] 96 % of control | endpoint: mean survival time, dose: 400.0 mg/kg/injection, schedule: Q01DX009 (ip), vehicle: saline with Tween-80 86 % of control | endpoint: mean survival time, dose: 400.0 mg/kg/injection, schedule: Q04DX003 (ip), vehicle: saline with Tween-80 95 % of control

CCCCN=C1C(=O)Nc2ccccc21
inactive: endpoint: mean survival time, dose: 75.0 mg/kg/injection, schedule: Q01DX001 (ip), vehicle: saline 98 % of control | endpoint: mean survival time, dose: 150.0 mg/kg/injection, schedule: Q01DX001 (ip), vehicle: saline 97 % of control | endpoint: mean survival time, dose: 300.0 mg/kg/injection, schedule: Q01DX001 (ip), vehicle: saline 95 % of control

CC1C=NNC1=O (stereo not drawn)
active: endpoint: mean survival time, dose: 400.0 mg/kg/injection, schedule: Q01DX009 (ip), vehicle: Klucel (hydroxypropylcellulose) (HPC) 155 % of control
inactive: endpoint: mean survival time, dose: 8.0 mg/kg/injection, schedule: Q03HX016 (ip), vehicle: saline 101 % of control | endpoint: mean survival time, dose: 8.0 mg/kg/injection, schedule: Q03HX024 (ip), vehicle: saline 96 % of control | endpoint: mean survival time, dose: 12.5 mg/kg/injection, schedule: Q01DX009 (ip), vehicle: Klucel (hydroxypropylcellulose) (HPC) 97 % of control | endpoint: mean survival time, dose: 16.0 mg/kg/injection, schedule: Q03HX016 (ip), vehicle: saline 98 % of control | endpoint: mean survival time, dose: 16.0 mg/kg/injection, schedule: Q03HX024 (ip), vehicle: saline 100 % of control | endpoint: mean survival time, dose: 25.0 mg/kg/injection, schedule: Q01DX009 (ip), vehicle: Klucel (hydroxypropylcellulose) (HPC) 110 % of control | endpoint: mean survival time, dose: 32.0 mg/kg/injection, schedule: Q03HX016 (ip), vehicle: saline 112 % of control | endpoint: mean survival time, dose: 32.0 mg/kg/injection, schedule: Q03HX024 (ip), vehicle: saline 116 % of control | endpoint: mean survival time, dose: 50.0 mg/kg/injection, schedule: Q01DX009 (ip), vehicle: Klucel (hydroxypropylcellulose) (HPC) 111 % of control | endpoint: mean survival time, dose: 64.0 mg/kg/injection, schedule: Q01DX009 (ip), vehicle: saline 109 % of control | endpoint: mean survival time, dose: 64.0 mg/kg/injection, schedule: Q03HX016 (ip), vehicle: saline 110 % of control | endpoint: mean survival time, dose: 64.0 mg/kg/injection, schedule: Q03HX024 (ip), vehicle: saline 108 % of control | endpoint: mean survival time, dose: 64.0 mg/kg/injection, schedule: Q04DX003 (ip), vehicle: saline 103 % of control | endpoint: mean survival time, dose: 64.0 mg/kg/injection, schedule: Q08DX002 (ip), vehicle: saline 102 % of control | [1] 117 % of control | endpoint: mean survival time, dose: 128.0 mg/kg/injection, schedule: Q01DX009 (ip), vehicle: saline 118 % of control | endpoint: mean survival time, dose: 128.0 mg/kg/injection, schedule: Q04DX003 (ip), vehicle: saline 103 % of control | endpoint: mean survival time, dose: 128.0 mg/kg/injection, schedule: Q08DX002 (ip), vehicle: saline 101 % of control | [2] 123 % of control | endpoint: mean survival time, dose: 256.0 mg/kg/injection, schedule: Q04DX003 (ip), vehicle: saline 110 % of control | endpoint: mean survival time, dose: 256.0 mg/kg/injection, schedule: Q08DX002 (ip), vehicle: saline 102 % of control | endpoint: mean survival time, dose: 512.0 mg/kg/injection, schedule: Q04DX003 (ip), vehicle: saline 103 % of control | endpoint: mean survival time, dose: 512.0 mg/kg/injection, schedule: Q08DX002 (ip), vehicle: saline 106 % of control

CC(=O)NCC(=O)[O][Sn]([c]1ccc(C)cc1)([c]1ccc(C)cc1)[c]1ccc(C)cc1
inactive: endpoint: mean survival time, dose: 0.19 mg/kg/injection, schedule: Q01DX009 (ip), vehicle: saline 97 % of control | [6] 105 % of control | [7] 103 % of control and 111 % of control | [8] 100 % of control | endpoint: mean survival time, dose: 3.12 mg/kg/injection, schedule: Q01DX009 (ip), vehicle: saline 91 % of control

C(=Nc1ccccc1)c1ccc(C=Nc2ccccc2)cc1
inactive: endpoint: mean survival time, dose: 100.0 mg/kg/injection, schedule: Q01DX009 (ip), vehicle: saline with Tween-80 106 % of control | endpoint: mean survival time, dose: 100.0 mg/kg/injection, schedule: Q04DX003 (ip), vehicle: saline sonified 97 % of control | [4] 94 % of control | endpoint: mean survival time, dose: 200.0 mg/kg/injection, schedule: Q04DX003 (ip), vehicle: saline sonified 102 % of control | endpoint: mean survival time, dose: 400.0 mg/kg/injection, schedule: Q04DX003 (ip), vehicle: saline sonified 97 % of control

COc1ccc(-c2nc3ccccc3nc2-c2ccc(OC)cc2)cc1
inactive: [3] 94 % of control | [5] 94 % of control

c1ccc2[nH]c(CN(CCN(Cc3nc4ccccc4[nH]3)Cc3nc4ccccc4[nH]3)Cc3nc4ccccc4[nH]3)nc2c1
inactive: endpoint: median survival time, dose: 3.12 mg/kg/injection, schedule: Q01DX005 (ip), vehicle: DMSO 100 % of control | endpoint: median survival time, dose: 6.25 mg/kg/injection, schedule: Q01DX005 (ip), vehicle: DMSO 100 % of control

CN(C)CCCNC(CC#N)CCC#N (stereo not drawn)
inactive: endpoint: mean survival time, dose: 100.0 mg/kg/injection, schedule: Q04DX003 (ip), vehicle: saline 96 % of control | endpoint: mean survival time, dose: 200.0 mg/kg/injection, schedule: Q04DX003 (ip), vehicle: saline 95 % of control

FC(F)(F)C(F)(F)CI
inactive: endpoint: mean survival time, dose: 100.0 mg/kg/injection, schedule: Q01DX001 (ip), vehicle: saline with Tween-80 105 % of control | endpoint: mean survival time, dose: 200.0 mg/kg/injection, schedule: Q01DX001 (ip), vehicle: saline with Tween-80 98 % of control | endpoint: mean survival time, dose: 400.0 mg/kg/injection, schedule: Q01DX001 (ip), vehicle: saline with Tween-80 94 % of control

S=c1nc[nH]c2nc(-c3ccccc3)[nH]c12
inactive: endpoint: mean survival time, dose: 12.5 mg/kg/injection, schedule: Q01DX005 (ip), vehicle: other 98 % of control | endpoint: mean survival time, dose: 25.0 mg/kg/injection, schedule: Q01DX005 (ip), vehicle: other 96 % of control | endpoint: mean survival time, dose: 50.0 mg/kg/injection, schedule: Q01DX005 (ip), vehicle: other 102 % of control | endpoint: mean survival time, dose: 100.0 mg/kg/injection, schedule: Q01DX005 (ip), vehicle: other 98 % of control | endpoint: mean survival time, dose: 200.0 mg/kg/injection, schedule: Q01DX005 (ip), vehicle: other 93 % of control

CCCCCCCCCCCCCC[N+]1(CC)CCCCC1
inactive: endpoint: mean survival time, dose: 0.12 mg/kg/injection, schedule: Q01DX009 (ip), vehicle: saline 100 % of control | [6] 103 % of control | [7] 106 % of control | [8] 97 % of control
